Measurements from ChEMBL document CHEMBL1136533, “Hemisynthesis and preliminary evaluation of novel endocannabinoid analogues” (Bioorg Med Chem Lett, 2003).

Key:
[1] = biological target: T1, Fatty-acid amide hydrolase 1 (Rattus norvegicus, UniProt P97612); experiment: Binding affinity towards Fatty-acid amide hydrolase (FAAH) in rat forebrain membranes; format: cell membranes, Membrane
T1 sequence (P97612 whole entry): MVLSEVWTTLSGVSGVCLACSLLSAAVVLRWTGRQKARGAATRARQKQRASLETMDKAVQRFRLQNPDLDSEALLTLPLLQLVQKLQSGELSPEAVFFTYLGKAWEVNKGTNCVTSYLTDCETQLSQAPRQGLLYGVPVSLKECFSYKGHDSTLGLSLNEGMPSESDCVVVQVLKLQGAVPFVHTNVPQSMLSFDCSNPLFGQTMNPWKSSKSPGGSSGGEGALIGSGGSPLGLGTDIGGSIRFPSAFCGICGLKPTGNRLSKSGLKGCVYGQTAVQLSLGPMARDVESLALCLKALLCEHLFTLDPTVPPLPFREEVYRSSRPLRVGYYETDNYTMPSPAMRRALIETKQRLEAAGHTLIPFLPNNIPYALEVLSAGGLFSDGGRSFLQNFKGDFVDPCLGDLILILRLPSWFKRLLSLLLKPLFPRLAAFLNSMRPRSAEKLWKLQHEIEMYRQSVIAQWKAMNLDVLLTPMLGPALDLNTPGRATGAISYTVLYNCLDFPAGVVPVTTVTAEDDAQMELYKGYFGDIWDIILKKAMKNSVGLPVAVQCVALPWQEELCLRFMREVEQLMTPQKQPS

Cannabinoid receptor 1 = Cannabinoid receptor 1 (Rattus norvegicus, UniProt P20272); experiment: Binding affinity towards Cannabinoid receptor 1 in rat forebrain membranes using [3H]CP-55940 as radioligand; format: cell membranes, Membrane
[2] = biological target: Cannabinoid receptor 1 (Rattus norvegicus) (UniProt P20272); experiment: Percentage affinity towards Cannabinoid receptor 1 using [3H]CP-55940 as radioligand in rat forebrain membranes; format: cell membranes; conditions: Membrane
[3] = biological target: T2, Fatty-acid amide hydrolase 1 (Rattus norvegicus) (UniProt P97612); experiment: Inhibitory effect on the Fatty-acid amide hydrolase (FAAH) activity was determined by % inhibition of anandamide hydrolysis at 1 uM concentration of compound; format: functional
T2 sequence (whole entry): T1 sequence (P97612 whole entry)

[4] = biological target: T2, Fatty-acid amide hydrolase 1 (Rattus norvegicus); experiment: Inhibitory effect on the Fatty-acid amide hydrolase (FAAH) activity was determined by % inhibition of anandamide hydrolysis at 10 uM concentration of compound; format: functional

Cannabinoid receptor 1, sequence (P20272 whole entry): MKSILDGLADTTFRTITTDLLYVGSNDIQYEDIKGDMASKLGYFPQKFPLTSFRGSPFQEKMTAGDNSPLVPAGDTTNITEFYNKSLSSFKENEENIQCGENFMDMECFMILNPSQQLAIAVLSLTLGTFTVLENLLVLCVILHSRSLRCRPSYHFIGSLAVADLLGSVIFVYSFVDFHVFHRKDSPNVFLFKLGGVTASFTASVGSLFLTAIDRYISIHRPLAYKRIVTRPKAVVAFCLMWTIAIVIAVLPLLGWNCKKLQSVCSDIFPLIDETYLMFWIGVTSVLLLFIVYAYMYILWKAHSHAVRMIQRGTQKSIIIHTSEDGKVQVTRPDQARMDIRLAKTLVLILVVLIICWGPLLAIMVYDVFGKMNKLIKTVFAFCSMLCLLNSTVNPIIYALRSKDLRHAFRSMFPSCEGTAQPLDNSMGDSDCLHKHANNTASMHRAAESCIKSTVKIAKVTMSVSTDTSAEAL
Cannabinoid receptor 1 (Rattus norvegicus), sequence (P20272 whole entry): as above

Compound | Ki [1] [µM] | Ki (Cannabinoid receptor 1) [µM] | Affinity [2] [%] | Inhibition of anandamide hydrolysis [3] [%] | Inhibition of anandamide hydrolysis [4] [%]
CCCCC/C=C\C/C=C\C/C=C\C/C=C\CCC(C)(C)C(=O)OCCO | 2.1 | > 10 | 100 | 90 | 12
CCCCC/C=C\C/C=C\C/C=C\C/C=C\CCCC(=O)OCCO |  | > 10 | 83 | 100 | 70
CCCCC/C=C\C/C=C\CCCCCCCC(=O)CCCO |  |  | 72 | 100 | 100
CCCCC/C=C\C/C=C\C/C=C\C/C=C\CCCC(=O)NCCO [ANANDAMIDE] | 3 |  | 19 |  | 
CCCCC/C=C\C/C=C\C/C=C\C/C=C\CCCC(=O)CCCO |  | 0.36 | 38 | 91 | 78
